# Source: patent publication US20140316004A1, “TREATMENT OF POULTRY FOR REDUCING THE FEED CONVERSION RATE OR FOR REDUCING THE INCIDENCE OF ASCITES” (TAMINCO N.V., priority 2006, published 2014)
# Legend:
# [1] = 1000 mg pangamic acid per kg of feed; not affected, same as control group; cited from earlier work
# ascites [2] = conditions: coenzyme Q added to high-calorie pelletized feed, growth rate higher than 50 g/day; cited from earlier work
# [3] = Broiler slaughter test: production performance (mortality, growth rate, feed conversion rate); type: in vivo, broilers; conditions: 167 mg DMG per kg feed
# From the text: (§1) To examine all the effects associated with the supplementation of dimethylglycine in fowl feed, a test was setup with broilers as model species. In this slaughter test with 64 broiler hens, 14-day old chickens were bred for 26 days, i.e. till the age of 40 days. At the beginning of the test the broilers were ad random divided in 16 groups of 4 specimens. The birds were fed with one type of feed from the first day on till the end of the test period. The type of feed was attributed on a random basis to the different housings. The animals were setup with a colored ring around their leg for identification purposes within each housing. The control feed was based on a commercial broiler crumble enriched with 5% corn oil to increase the oxidative stress in the feed. Further 1% celite was mixed into the feed as external marker to allow the determination of the apparent nutrient digestibility. The feed had the following composition: 87.65% dry matter, 6.13% ash, 18.05% crude protein, 9.13% crude fat, 4.32% crude fibre and 50.01% other carbohydrates (including 89% starch and 2% sugar). It has a (calculated) metabolizable energy value of about 13.4 MJ/kg.
# (§2) In the second type of feed 167 mg of DMG was added per kilogram to the same composition of feed as described for the control feed. Over the entire test period, the broilers consumed on average about 25 mg DMG per bird per day. The housing of the broilers consisted out of circular housings with an open roof and bottom and with a total surface of 0.72 m^2. The material of the fencing was a flexible wire netting with a height of 1 m and mazes of 2×2 cm and thickness of 2 mm. The bottom was strewed with a thick layer of turf with on top a layer of wood-shavings. Feed and water were ad libitum available at all times. The average environmental temperature was maintained at 15° C. to increase the occurrence of ascites (Shlosberg A., Zadikov I., Bendheim U., Handji V., Berman E. Avian Pathology, 21, 369-382 (1992)). A conventional light scheme of 23 hours light:1 hour dark was applied
# The daily growth during the two periods (between the first and fifteenth day and between the sixteenth and twentysixth day) was calculated for each surviving animal. The feed uptake for each housing was also measured during both periods. The commercial feed conversion rate was calculated for each of the housings for both periods (FCRI and FCR II) and for the total growth period. This commercial feed conversion rate was calculated by dividing the total feed consumption by the weight gain of the birds which stayed alive during the entire experiment, including also the feed consumption of the birds that died. To determine only the non-therapeutic effect of DMG on the feed conversion rate, the actual feed conversion rate of the living birds was also calculated more particularly on the basis of weight gain and the feed consumed by these living birds (based on the weight gain of the birds that died, the amount of feed consumed by these birds was detracted from the total feed consumption).
# ascites [4] = test: Broiler slaughter test: incidence of ascites and ascites heart index at autopsy; type: in vivo, broilers
# From the text: as §1, §2
# Finally there was also an autopsy on all chickens. First, the carcass weight was determined by dissection of the head, the paws, evisceration and the deduction of the average feather weight. Next, the weight of the breast, buttock and thigh muscle were determined. Also the heart, liver and abdominal fat were measured. Macroscopic lesions related to ascites were visually reviewed and described as indicated by Scheele et al. (2003) (Scheele, C. W., Van Der Klis, J. D., Kwakernaak, C., Buys, N., Decuypere, E., British Poultry Science, 44(3), 484-489 (2003)), these were: accumulation of liquid in the abdomen, a hydropericard and right heart dilatation. The latter was quantified by the ascites heart index (AHD being the ratio of the dry weight of the right ventricle to the dry weight of both ventricles after freeze drying.
compound,measurement,setting,value
"CN(C)CC(=O)OC[C@@H](O)[C@@H](O)[C@H](O)[C@@H](O)C(=O)O [pangamic acid, 6-O-(dimethylaminoacetyl)-D-gluconic acid]",feed conversion rate,[1],about 2.5
coenzyme Q,mortality due to ascites,ascites [2],reduced considerably
"CN(C)CC(=O)O [DMG, N,N-dimethylglycine]",Mortality (%),"[3]; 26-day test, 15° C, feed enriched with 5% corn oil",6.25%
same,Growth rate (g/d) Phase I (days 1-15),[3]; days 1-15,70 g/day
same,Commercial feed conversion FCR I (days 1-15),"[3]; days 1-15, includes feed of birds that died",2.23
same,Actual feed conversion FCR I (days 1-15),"[3]; days 1-15, living birds only",2.07
same,Growth rate (g/d) Total (days 1-26),[3]; days 1-26,77 g/day
same,Commercial feed conversion FCR total (days 1-26),"[3]; days 1-26, includes feed of birds that died",2.19
same,Actual feed conversion FCR total (days 1-26),"[3]; days 1-26, living birds only",2.09
same,Growth rate (g/d) Phase II (days 15-26),[3]; days 15-26,87 g/day
same,Commercial feed conversion FCR II (days 15-26),"[3]; days 15-26, includes feed of birds that died",2.17
same,Actual feed conversion FCR II (days 15-26),"[3]; days 15-26, living birds only",2.13
same,Ascites (%),"ascites [4]; 167 mg DMG per kg feed, 26-day test, 15° C",6.25%
same,"AHI, all animals (ascites heart index)","ascites [4]; 167 mg DMG per kg feed, autopsy, all animals",0.242
same,"AHI, surviving animals (ascites heart index)","ascites [4]; 167 mg DMG per kg feed, autopsy, surviving animals",0.241
same,"Influence DMG (%) on AHI, all animals","ascites [4]; versus control, all animals",−17.5%
same,"Influence DMG (%) on AHI, surviving animals","ascites [4]; versus control, surviving animals",−19.2%
